{
  "source": "patent US6855730B2",
  "about": "“3-methylidenyl-2-indolinone modulators of protein kinase” (Sugen, Inc., priority 1998, dated 2005)",
  "molecular_target": "T1, human flk-1 (Homo sapiens, UniProt P35968)",
  "T1 construct": "host or cells: Flk-1/NIH cells (NIH fibroblasts)",
  "T1 sequence (P35968 20-1356)": "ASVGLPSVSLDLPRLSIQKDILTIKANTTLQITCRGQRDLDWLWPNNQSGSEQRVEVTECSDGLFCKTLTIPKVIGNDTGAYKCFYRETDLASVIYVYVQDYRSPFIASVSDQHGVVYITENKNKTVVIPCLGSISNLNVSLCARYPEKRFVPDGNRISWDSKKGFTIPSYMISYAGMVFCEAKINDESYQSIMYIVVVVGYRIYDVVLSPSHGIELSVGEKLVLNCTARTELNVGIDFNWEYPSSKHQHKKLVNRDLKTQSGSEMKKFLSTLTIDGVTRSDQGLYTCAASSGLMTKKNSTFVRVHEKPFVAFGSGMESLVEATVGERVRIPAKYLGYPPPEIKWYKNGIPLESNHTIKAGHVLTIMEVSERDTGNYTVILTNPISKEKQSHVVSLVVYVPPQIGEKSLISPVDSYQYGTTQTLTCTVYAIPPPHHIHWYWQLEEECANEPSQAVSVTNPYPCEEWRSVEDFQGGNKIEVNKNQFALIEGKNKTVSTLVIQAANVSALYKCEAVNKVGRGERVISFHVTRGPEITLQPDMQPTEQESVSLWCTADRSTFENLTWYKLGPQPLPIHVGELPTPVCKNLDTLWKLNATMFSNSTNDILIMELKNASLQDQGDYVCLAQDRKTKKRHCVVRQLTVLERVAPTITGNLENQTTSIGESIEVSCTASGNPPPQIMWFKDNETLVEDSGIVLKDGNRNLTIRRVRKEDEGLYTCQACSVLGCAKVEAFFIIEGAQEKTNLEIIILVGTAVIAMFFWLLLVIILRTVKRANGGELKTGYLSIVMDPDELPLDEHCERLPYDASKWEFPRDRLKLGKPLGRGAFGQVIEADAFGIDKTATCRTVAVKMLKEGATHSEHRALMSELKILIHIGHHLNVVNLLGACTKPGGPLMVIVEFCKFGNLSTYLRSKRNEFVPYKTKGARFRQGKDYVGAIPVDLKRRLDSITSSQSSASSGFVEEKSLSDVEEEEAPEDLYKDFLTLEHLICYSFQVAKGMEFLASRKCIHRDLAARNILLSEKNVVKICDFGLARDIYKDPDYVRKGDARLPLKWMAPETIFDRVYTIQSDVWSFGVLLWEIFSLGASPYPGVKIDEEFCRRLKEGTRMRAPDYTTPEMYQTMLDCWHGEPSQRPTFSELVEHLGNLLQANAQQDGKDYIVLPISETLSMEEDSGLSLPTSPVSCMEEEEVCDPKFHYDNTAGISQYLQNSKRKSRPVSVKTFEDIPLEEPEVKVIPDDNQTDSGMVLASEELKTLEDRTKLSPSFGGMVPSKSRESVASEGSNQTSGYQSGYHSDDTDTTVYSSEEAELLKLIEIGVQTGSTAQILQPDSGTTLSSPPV",
  "assay": "Biochemical FLK-1 assay (flk-1 autophosphorylation ELISA)",
  "details": "read-out: bio FLK1 IC50 (μM) % if inhibition at 100",
  "procedure": "This assay evaluates flk-1 autophosphorylation activity in vitro using ELISA.\nMaterials And Reagents • 1. 15 cm tissue culture dishes • 2. Flk-1/NIH cells: NIH fibroblast line over-expressing human flk-1clone 3 (SUGEN, Inc., obtained from MPI, Martinsried, Germany). • 3. Growth medium: DMEM plus heat inactivated 10% FBS and 2 mM Glutamine (Gibco-BRL). • 4. Starvation medium: DMEM plus 0.5% heat-inactivated FBS, 2 mM Glutamine (Gibco-BRL). • 5. […] L4 or E38 monoclonal antibody specific for flk-1, Purified by Protein-A agarose affinity chromatography (SUGEN, Inc.). • 7. PBS (Dulbecco's Phosphate-Buffered Saline) Gibco Cat. No. 450-1300EB). • 8. HNTG (see BIOCHEMICAL FGFR for preparation). • 9. Pierce BCA protein determination kit. • 10. Blocking buffer • 11. TBST (pH 7.0) • 12. Kinase Buffer • 13. Kinase Stop Solution: 200 mM EDTA. • 14. […] AB kit (Vector Laboratories Cat. No. PK 4000). • 16. DMSO • 17. NUNC 96-well V bottom polypropylene plates (Applied Scientific Cat. No. AS-72092). • 18. Turbo-TMB (Pierce). • 19. Turbo-TMB stop solution: 1 M H2SO4. • 20. ATP (Sigma Cat. No. A-7699). • 21. 20% DMSO in TBS (pH 7.0). Procedure\nCell Growth and Lysate Preparation. • 1. Seed cell into growth medium and grow for 2-3 days to 90-100% confluency at 37° C. and 5% CO2.\n2. Remove the medium and wash the cells twice with PBS. Lyse with HNTG lysis buffer. Collect all lysates and vortex mix them for 20-30 seconds. • 3. Remove insoluble material by centrifugation (5-10 min at about 10,000 ×g). • 4. Determine the protein concentration using BCA kit. • 5. Partition lysate into 1 mg aliquots, store at −80° C.\nAssay Procedure • 1. Coat Corning 96-well ELISA plates with 2 μg/well purified L4 (or E 38) in 100 μl of PBS. Store overnight at […] • 2. Remove unbound proteins from wells by inverting the plate to remove the liquid. Wash one time with dH2O, pat plate on paper towel to remove excess liquid. • 3. Block plates with 150 μl blocking buffer per well. Incubate for 45-60 minutes with shaking at 4° C. • 4. Remove the blocking buffer and wash the ELISA plate three times with dH2O and one time with TBST. Pat plate on paper towel to remove excess liquid. • 5. Dilute lysate in PBS to give final concentration of 50 μg/100 μl. Add 100 μl of diluted lysate to each well. Incubate with shaking at 4° C. overnight. • 6. Remove unbound proteins from wells by inverting the plate. Wash as in step 4. • 7. Add 80 μl of kinase buffer to wells (90 μl to negative control wells). • 8. Dilute test compounds (normally 10-fold) into wells of a polypropylene plate containing 20% DMSO in TBS. • 9. Add 10 μl of the diluted compounds to the ELISA wells containing immobilized flk-1 and shake. Control wells receive no compounds. • 10. From stock 1 mM ATP, prepare 0.3 mM ATP solution in dH2O (alternatively, kinase buffer may be used). • 11. Add 10 μl of 0.3 mM ATP to all wells except the negative controls. Incubate for 60 min. at room temperature with shaking. • 12. After 1 hr stop the kinase reaction by adding 11 μl 200 mM EDTA. Shake for 1-2 min. • 13. Wash the ELISA plate 4 times with dH2O and twice with TBST. • 14. Add 100 μl of 1:5000 biotinylated 4G10:TBST to all wells. Incubate 45 min with shaking at room temperature. • 15. While the above is incubating, add 50 μl of solutions A & B from the ABC kit to 10 ml of TBST. These solutions must be combined approximately 30 min prior to use. • 16. Wash plates as in step 4. • 17. Add 100 μl of the preformed A & B complex to all wells. Incubate 30 min with shaking at room temperature. • 18. Wash plates as in step 4. • 19. Add 100 μl turbo-TMB. Shake at room temperature for 10-15 min. • 20. When the color in the positive control wells reaches an absorbance of about 0.35-0.4, stop the reaction with 100 μl of turbo-TMB stop solution. • 21. Read plates on Dynatech MR7000 ELISA reader, test filter: 450 nM, reference filter: 410 nM.",
  "note": "Where a name gives a salt, the structure may show the parent alone.",
  "data": [
    {"smiles": "Cc1c(/C=C2\\C(=O)Nc3ccc(C(=O)O)cc32)[nH]c2ccccc12", "note": "[Example 156, 3-(3-Methyl-1H-indol-2-ylmethylene)-2-oxo-2,3-dihydro-1H-indole-5-carboxylic acid (piperidine salt)]", "values": [
      {"measurement": "IC50", "value": 4.2, "unit": "µM"}
    ]}
  ]
}
